In data set [1] the target is T1, Deubiquitinase and deneddylase Dub1 (Chlamydia trachomatis serovar L2 (strain ATCC VR-902B / DSM 19102 /434/Bu)) (UniProt B0B9A0).
T1 sequence (whole entry): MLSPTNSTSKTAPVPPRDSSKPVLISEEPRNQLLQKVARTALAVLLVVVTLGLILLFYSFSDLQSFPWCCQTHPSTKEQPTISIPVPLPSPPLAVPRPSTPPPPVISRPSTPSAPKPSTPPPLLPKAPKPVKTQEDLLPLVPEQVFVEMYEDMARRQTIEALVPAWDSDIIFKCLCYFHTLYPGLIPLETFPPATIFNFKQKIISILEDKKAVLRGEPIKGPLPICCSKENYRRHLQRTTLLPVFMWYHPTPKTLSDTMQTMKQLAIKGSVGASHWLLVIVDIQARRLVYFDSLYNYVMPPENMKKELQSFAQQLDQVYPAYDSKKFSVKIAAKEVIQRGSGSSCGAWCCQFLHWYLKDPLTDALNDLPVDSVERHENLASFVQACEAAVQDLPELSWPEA
Description: Binding affinity to Chlamydia trachomatis DUB1 using Ub-Rh110Gly as substrate assessed as ratio of Kinact/Ki.

Data set [2] is described as follows: Drug metabolism in PBS assessed as pseudo-first-order rate constant of Cysteine at 50 uM incubated for >10 hrs in presence of L-Cysteine by HPLC-UV analysis. It is filed as ADME. The conditions noted are these: buffer.

For `COc1ccccc1CNC(=O)c1ccc(CNC(=O)c2coc(C#N)n2)cc1`, the Ratio in data set [1] stood at 137 M⁻¹ s⁻¹.
Turning to `COc1ccccc1CNC(=O)c1ccc(CNC(=O)c2nc(C#N)ncc2F)cc1`, the Ratio in data set [1] came to 32.2 M⁻¹ s⁻¹.
On the same count and under the same terms, then `COc1ccccc1CNC(=O)c1ccc(CNS(=O)(=O)c2cnc(C#N)nc2)cc1`, with 15.6 M⁻¹ s⁻¹.
In the case of `COc1ccccc1CNC(=O)c1ccc(CNC(=O)C2CCN(C#N)CC2)cc1`, the K in data set [2] is 0.151 h⁻¹.
Regarding `N#Cc1nccc(C(=O)NCc2ccc(C(=O)NCc3ccccc3)cc2)n1`, the Ratio in data set [1] is 10.7 M⁻¹ s⁻¹.
For the compound `COc1ccccc1CNC(=O)c1ccc(CNC(=O)[C@@H]2CCN(C#N)C2)cc1`, the Ratio in data set [1] is 0.761 M⁻¹ s⁻¹. Further, the K in data set [2] came out at 0.824 h⁻¹.
Taken in the same sequence, the figures for `COc1ccccc1CNC(=O)c1ccc(CNC(=O)[C@H]2CCN(C#N)C2)cc1` were 1.1 M⁻¹ s⁻¹ and 0.87 h⁻¹.

Source of the values: ChEMBL document CHEMBL6071191, “Correlating Predicted Reactivities with Experimental Inhibition Data of Covalent ChlaDUB1 Inhibitors” (ACS Med Chem Lett, 2024).
